According to US10377791B2, “Therapeutically active estratrienthiazole derivatives as inhibitors of 17 B-hydroxysteroid dehydrogenase, type 1” (FORENDO PHARMA LTD, priority 2013, dated 2019):
Structures can show the parent of a compound that is named as a salt.

What was measured:
[1] = molecular target: T1, recombinant human 17β-HSD1 (Homo sapiens, UniProt P14061); assay: Inhibition of recombinant human 17β-HSD1; assay type: biochemical; details: inhibitor at 1 μM; 30 nM estrone, 1 mM NADPH, 30 min at RT; read-out: 17β-HDS1 Inhibition % at 1 μM
T1 construct: made in house; host or cells: Sd9 (Sf9) insect cells, baculovirus (Bac to Bac Expression System)
T1 sequence (P14061 1-328): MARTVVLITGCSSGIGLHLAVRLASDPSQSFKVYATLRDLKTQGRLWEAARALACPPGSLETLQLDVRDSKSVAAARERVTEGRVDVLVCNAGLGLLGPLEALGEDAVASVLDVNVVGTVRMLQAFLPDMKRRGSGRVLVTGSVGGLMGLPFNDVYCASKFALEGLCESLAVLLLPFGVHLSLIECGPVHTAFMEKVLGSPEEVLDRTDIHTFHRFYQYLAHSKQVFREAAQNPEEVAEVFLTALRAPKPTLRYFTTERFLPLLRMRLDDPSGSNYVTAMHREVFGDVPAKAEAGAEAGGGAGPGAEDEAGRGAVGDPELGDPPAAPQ
Procedure, shortened: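 Microsomal enzyme from baculovirus-infected insect cells (1 μg/ml) incubated 30 min at RT in 20 mM KH2PO4 pH 7.4 with 30 nM ³H-estrone and 1 mM NADPH, inhibitor at 1 μM or 0.1 μM, 1% DMSO. TCA-stopped; estrone/estradiol separated by radio-HPLC; % inhibition = 100 − % conversion.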

[2] = molecular target: T2, recombinant human 17β-HSD2 (Homo sapiens, UniProt P37059); assay: Inhibition of recombinant human 17β-HSD2; assay type: biochemical; details: inhibitor at 1 μM; 50 nM estradiol, 1 mM NADH, 30 min at RT; read-out: 17β-HSD2 Inhibition % at 1 μM
T2 construct: made in house; host or cells: Sd9 (Sf9) insect cells, baculovirus (Bac to Bac Expression System)
T2 sequence (P37059 1-387): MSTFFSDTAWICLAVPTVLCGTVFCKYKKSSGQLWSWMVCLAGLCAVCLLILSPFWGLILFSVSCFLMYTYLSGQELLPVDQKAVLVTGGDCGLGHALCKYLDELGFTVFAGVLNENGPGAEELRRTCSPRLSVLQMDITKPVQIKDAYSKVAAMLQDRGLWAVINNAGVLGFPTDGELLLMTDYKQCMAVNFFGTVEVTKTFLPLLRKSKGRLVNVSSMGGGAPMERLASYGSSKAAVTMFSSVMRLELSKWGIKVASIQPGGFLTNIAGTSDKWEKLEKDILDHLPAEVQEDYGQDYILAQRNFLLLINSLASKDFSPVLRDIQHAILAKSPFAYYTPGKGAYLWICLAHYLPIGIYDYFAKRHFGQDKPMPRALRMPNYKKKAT
Procedure, shortened: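 Membrane extract of baculovirus-expressed enzyme in Sf9 cells (4 μg/ml) incubated in 20 mM KH2PO4 pH 8.5 with 50 nM estradiol (³H-tracer) and 1 mM NADH, 30 min at RT, 1% DMSO, inhibitor at 1 μM or 0.1 μM. TCA-stopped; estradiol-to-estrone conversion by radio-HPLC; % inhibition = 100 − % conversion.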

[3] = human, tissue homogenate, 1 h
Experimental: The in vitro metabolic stability of the compounds of the invention was determined for exemplified compounds using human liver microsome and homogenate incubations. The incubation time points used with or without appropriate cofactors were 0 min and 60 min. Samples were collected at both time points and substrates were detected using LC/PDA/TOF-MS.

Row | Compound | inhibition at 1 µM [1] [%] | inhibition at 1 µM [2] [%] | In vitro metabolic stability, % remaining after 60 min [3] [%]
1 | Cc1cnc(NC(=O)CC[C@@H]2CC(=O)[C@@]3(C)CCC4c5ccc(OS(C)(=O)=O)cc5CCC4C23)s1 (stereo partly drawn) [Compound 2, Methanesulphonic acid (13S,15R)-13-methyl-15-[2-(5-methylthiazol-2-ylcarbamoyl)-ethyl]-17-oxo-7,8,9,11,12,13,14,15,16,17-decahydro-6H-cyclopenta[a]phenanthren-3-yl ester] | 95 | 11 | 25
2 | Cc1cnc(NC(=O)CC[C@@H]2CC(=O)[C@@]3(C)CCC4c5ccc(OC(=O)C(C)(C)C)cc5CCC4C23)s1 (stereo partly drawn) [Compound 3, 2,2-Dimethyl-propionic acid (13S,15R)-13-methyl-15-[2-(5-methylthiazol-2-ylcarbamoyl)-ethyl]-17-oxo-7,8,9,11,12,13,14,15,16,17-decahydro-6H-cyclopenta[a]phenanthren-3-yl ester] | – | – | 30
3 | Cc1cnc(NC(=O)CC[C@@H]2CC(=O)[C@@]3(C)CCC4c5ccc(OS(=O)(=O)O)cc5CCC4C23)s1 (stereo partly drawn) [Compound 5, Sulphuric acid mono-{(13S,15R)-13-methyl-15-[2-(5-methylthiazol-2-ylcarbamoyl)-ethyl]-17-oxo-7,8,9,11,12,13,14,15,16,17-decahydro-6H-cyclopenta[a]phenanthren-3-yl} ester triethylamine salt] | 92 | 4 | 50
4 | Cc1cnc(NC(=O)CC[C@@H]2CC(=O)[C@@]3(C)CCC4c5ccc(OCc6ccccc6)cc5CCC4C23)s1 (stereo partly drawn) [Compound 30, 3-((13S,15R)-3-Benzyloxy-13-methyl-17-oxo-7,8,9,11,12,13,14,15,16,17-decahydro-6H-cyclopenta[a]phenanthren-15-yl)-N-(5-methylthiazol-2-yl)propanamide] | – | – | 74
5 | Cc1cnc(NC(=O)CC[C@@H]2CC(=O)[C@@]3(C)CCC4c5cc6ncoc6cc5CCC4C23)s1 (stereo partly drawn) [Compound 47, 3-((3R,12aS)-12a-methyl-1-oxo-2,3,3a,3b,4,5,10b,11,12,12a-decahydro-1H-cyclopenta[7,8]phenanthro[3,2-d]oxazol-3-yl)-N-(5-methylthiazol-2-yl)propanamide] | 87 | 2 | 48
6 | Cc1cnc(NC(=O)CC[C@@H]2CC(=O)[C@@]3(C)CCC4c5cc(Br)c(O)c(Br)c5CCC4C23)s1 (stereo partly drawn) [Compound 58, 3-((13S,15R)-2,4-dibromo-3-hydroxy-13-methyl-17-oxo-7,8,9,11,12,13,14,15,16,17-decahydro-6H-cyclopenta[a]phenanthren-15-yl)-N-(5-methylthiazol-2-yl)propanamide] | 95 | 5 | 81
7 | Cc1cnc(NC(=O)CC[C@@H]2CC(=O)[C@@]3(C)CCC4c5ccccc5CCC4C23)s1 (stereo partly drawn) [Compound 83, 3-((13S,15R)-13-methyl-17-oxo-7,8,9,11,12,13,14,15,16,17-decahydro-6H-cyclopenta[a]phenanthren-15-yl)-N-(5-methylthiazol-2-yl)propanamide] | 92 | 1 | 74
8 | Cc1cnc(NC(=O)CC[C@@H]2CC(=O)[C@@]3(C)CCC4c5cc(N)ccc5CCC4C23)s1 (stereo partly drawn) [Compound 87, 3-((13S,15R)-2-amino-13-methyl-17-oxo-7,8,9,11,12,13,14,15,16,17-decahydro-6H-cyclopenta[a]phenanthren-15-yl)-N-(5-methylthiazol-2-yl)propanamide] | 87 | 2 | –
9 | Cc1cnc(NC(=O)CC[C@@H]2CC(=O)[C@@]3(C)CCC4c5cc(O)ccc5CCC4C23)s1 (stereo partly drawn) [Compound 88, 3-((13S,15R)-2-hydroxy-13-methyl-17-oxo-7,8,9,11,12,13,14,15,16,17-decahydro-6H-cyclopenta[a]phenanthren-15-yl)-N-(5-methylthiazol-2-yl)propanamide] | 93 | 1 | –
10 | Cc1cnc(NC(=O)CC[C@@H]2CC(=O)[C@@]3(C)CCC4c5cccc(N)c5CCC4C23)s1 (stereo partly drawn) [Compound 89, 3-((13S,15R)-4-amino-13-methyl-17-oxo-7,8,9,11,12,13,14,15,16,17-decahydro-6H-cyclopenta[a]phenanthren-15-yl)-N-(5-methylthiazol-2-yl)propanamide] | 71 | 0 | –
11 | Cc1cnc(NC(=O)CC[C@@H]2CC(=O)[C@@]3(C)CCC4c5cccc(O)c5CCC4C23)s1 (stereo partly drawn) [Compound 90, 3-((13S,15R)-4-hydroxy-13-methyl-17-oxo-7,8,9,11,12,13,14,15,16,17-decahydro-6H-cyclopenta[a]phenanthren-15-yl)-N-(5-methylthiazol-2-yl)propanamide] | 94 | 0 | –
12 | Cc1cnc(NC(=O)CC[C@@H]2CC(=O)[C@@]3(C)CCC4c5cc(C#N)c(O)cc5CCC4C23)s1 (stereo partly drawn) [Compound 91, 3-((13S,15R)-2-cyano-3-hydroxy-13-methyl-17-oxo-7,8,9,11,12,13,14,15,16,17-decahydro-6H-cyclopenta[a]phenanthren-15-yl)-N-(5-methylthiazol-2-yl)propanamide] | 97 | 1 | –
13 | Cc1cnc(NC(=O)CC[C@@H]2CC(=O)[C@@]3(C)CCC4c5ccc(O)c(C#N)c5CCC4C23)s1 (stereo partly drawn) [Compound 92, 3-((13S,15R)-4-cyano-3-hydroxy-13-methyl-17-oxo-7,8,9,11,12,13,14,15,16,17-decahydro-6H-cyclopenta[a]phenanthren-15-yl)-N-(5-methylthiazol-2-yl)propanamide] | 97 | 0 | –
14 | COc1ccc2c(c1)CCC1C2CC[C@]2(C)C(=O)C(O)[C@@H](CCC(=O)Nc3ncc(C)s3)C12 (stereo partly drawn) [Compound 93, 3-((13S,15S)-16-hydroxy-3-methoxy-13-methyl-17-oxo-7,8,9,11,12,13,14,15,16,17-decahydro-6H-cyclopenta[a]phenanthren-15-yl)-N-(5-methylthiazol-2-yl)propanamide] | 54 | 3 | –
15 | Cc1cnc(NC(=O)CC[C@@H]2CC(=O)[C@@]3(C)CCC4c5c([N+](=O)[O-])ccc(O)c5CCC4C23)s1 (stereo partly drawn) [Compound 94, 3-((13S,15R)-4-hydroxy-13-methyl-1-nitro-17-oxo-7,8,9,11,12,13,14,15,16,17-decahydro-6H-cyclopenta[a]phenanthren-15-yl)-N-(5-methylthiazol-2-yl)propanamide] | 95 | 4 | –
16 | Cc1cnc(NC(=O)CC[C@@H]2/C(=C/O)C(=O)[C@@]3(C)CCC4c5ccc(O)cc5CCC4C23)s1 (stereo partly drawn) [Compound 95, 3-{(13S,15S)-3-Hydroxy-16-[1-hydroxy-methylidene]-13-methyl-17-oxo-7,8,9,11,12,13,14,15,16,17-decahydro-6H-cyclopenta[a]phenanthren-15-yl}-N-(5-methylthiazol-2-yl)propanamide] | 97 | 3 | –
17 | COc1ccc2c(c1)CCC1C2CC[C@]2(C)C(=O)/C(=C/O)[C@@H](CCC(=O)Nc3ncc(C)s3)C12 (stereo partly drawn) [Compound 97, 3-{(13S,15S)-16-[1-Hydroxy-methylidene]-3-methoxy-13-methyl-17-oxo-7,8,9,11,12,13,14,15,16,17-decahydro-6H-cyclopenta[a]phenanthren-15-yl}-N-(5-methylthiazol-2-yl)propanamide] | 92 | 11 | –
18 | Cc1cnc(NC(=O)CC[C@@H]2CC(=O)[C@@]3(C)CCC4c5cccc(C(C)(C)C)c5CCC4C23)s1 (stereo partly drawn) [Compound 105, 3-((13S,15R)-4-(tert-butyl)-13-methyl-17-oxo-7,8,9,11,12,13,14,15,16,17-decahydro-6H-cyclopenta[a]phenanthren-15-yl)-N-(5-methylthiazol-2-yl)propanamide] | 90 | 16 | –
19 | COc1ccc2c(c1)CCC1C2CC[C@]2(C)C(=O)C[C@@H](CCC(=O)Nc3ncc(C)s3)C12 (stereo partly drawn) [Compound X, 3-((13S,15R)-3-Methoxy-13-methyl-17-oxo-7,8,9,11,12,13,14,15,16,17-decahydro-6H-cyclopenta[a]phenanthren-15-yl)-N-(5-methylthiazol-2-yl)propanamide, reference compound] | 96 | 3 | –
